Measured values: patent publication US10765114B2, “4-amino-6-(pyridyl and 2-substitutedphenyl)-picolinates and 6-amino-2-(pyridyl and 2-substitutedphenyl)-pyrimidine-4-carboxylates and their use as herbicides” (Dow AgroSciences LLC, priority 2013, dated 2020)
Where two headings read alike, the source gives them in different places.

Columns and labels:
[1] = test system: Key Grass and Sedge Weeds as well as Grass Crops; experiment: Post-Emergent Test II (Table 6); format: in vivo; details: post-emergence, 336 h, 14 days after application; for pest or weed control at 70 g/ha: 70 g ai/ha; for pest or weed control at 140 g/ha: 140 g ai/ha
Procedure, shortened: (§1)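 Growth stage at treatment: first or second true leaf. Application: compound in acetone/DMSO diluted into an adjuvant-containing aqueous mix, sprayed at 187 L/ha at several rates. Assessment: visual 0-100% injury at 14 days against untreated plants.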

[2] = test system: Key Broadleaf Weed and Crop Species; experiment: Post-Emergent Test II (Table 5); format: in vivo; details: post-emergence, 336 h; for pest or weed control at 70 g/ha: application rate 70 (kg ai/ha; footnote: g ai/ha); for pest or weed control at 140 g/ha: application rate 140 (kg ai/ha; footnote: g ai/ha)
Procedure, shortened: as §1

[3] = CYPSS, read-out: Visual Growth Reduction (%) 14 Days After Application CYPSS
[4] = DIGSA: crabgrass (Digitaria sanguinalis), read-out: Visual Growth Reduction (%) 14 Days After Application DIGSA
[5] = ECHSS, read-out: Visual Growth Reduction (%) 14 Days After Application ECHSS
[6] = ORYSS (crop), read-out: Visual Growth Reduction (%) 14 Days After Application ORYSS
[7] = SETFA: giant foxtail (Setaria faberi), read-out: Visual Growth Reduction (%) 14 Days After Application SETFA
[8] = SORVU: grain sorghum (Sorghum vulgare), read-out: Visual Growth Reduction (%) 14 Days After Application SORVU
[9] = TRZSS (crop), read-out: Visual Growth Reduction (%) 14 Days After Application TRZSS
[10] = ZEAMX: maize, corn (Zea mays), read-out: Visual Growth Reduction (%) 14 Days After Application ZEAMX
[11] = Abutilon theophrasti, ABUTH: velvetleaf (Abutilon theophrasti), read-out: Visual Growth Reduction (%) 14 Days After Application ABUTH
[12] = Amaranthus retroflexus, AMARE: redroot pigweed (Amaranthus retroflexus), read-out: Visual Growth Reduction (%) 14 Days After Application AMARE
[13] = Brassica napus, BRSSS: oilseed rape, canola (Brassica napus), read-out: Visual Growth Reduction (%) 14 Days After Application BRSSS
[14] = Chenopodium album, CHEAL: lambsquarters (Chenopodium album), read-out: Visual Growth Reduction (%) 14 Days After Application CHEAL
[15] = Euphorbia heterophylla, EPHHL: wild poinsettia (Euphorbia heterophylla), read-out: Visual Growth Reduction (%) 14 Days After Application EPHHL
[16] = Helianthus annuus, HELAN: sunflower (Helianthus annuus), read-out: Visual Growth Reduction (%) 14 Days After Application HELAN
[17] = Viola tricolor, VIOTR: wild pansy (Viola tricolor), read-out: Visual Growth Reduction (%) 14 Days After Application VIOTR

Row | Structure (SMILES) | pest or weed control at 70 g/ha [1, 3] [%] | pest or weed control at 140 g/ha [1, 3] [%] | pest or weed control at 70 g/ha [1, 4] [%] | pest or weed control at 140 g/ha [1, 4] [%] | pest or weed control at 70 g/ha [1, 5] [%] | pest or weed control at 140 g/ha [1, 5] [%] | pest or weed control at 70 g/ha [1, 6] [%] | pest or weed control at 140 g/ha [1, 6] [%] | pest or weed control at 70 g/ha [1, 7] [%] | pest or weed control at 140 g/ha [1, 7] [%] | pest or weed control at 70 g/ha [1, 8] [%] | pest or weed control at 140 g/ha [1, 8] [%] | pest or weed control at 70 g/ha [1, 9] [%] | pest or weed control at 140 g/ha [1, 9] [%] | pest or weed control at 70 g/ha [1, 10] [%] | pest or weed control at 140 g/ha [1, 10] [%] | pest or weed control at 70 g/ha [2, 11] [%] | pest or weed control at 140 g/ha [2, 11] [%] | pest or weed control at 70 g/ha [2, 12] [%] | pest or weed control at 140 g/ha [2, 12] [%] | further results
1 | Nc1c(F)c(-c2ccc(C(F)F)nc2)nc(C(=O)O)c1Cl [Compound 27, 4-amino-5-chloro-6′-(difluoromethyl)-3-fluoro-[2,3′-bipyridine]-6-carboxylic acid] | 95 to 100 | 95 to 100 | 75 to 84 | 85 to 94 | 85 to 94 | 85 to 94 | 0 to 29 | 0 to 29 | 75 to 84 | 85 to 94 | 75 to 84 | 85 to 94 | 45 to 59 | 60 to 74 | 60 to 74 | 75 to 84 | 85 to 94 | 95 to 100 | 95 to 100 | 95 to 100 | pest or weed control at 70 g/ha [2, 13]: 85 to 94%; pest or weed control at 140 g/ha [2, 13]: 85 to 94%; pest or weed control at 70 g/ha [2, 14]: 95 to 100%; pest or weed control at 140 g/ha [2, 14]: 95 to 100%; pest or weed control at 70 g/ha [2, 15]: 95 to 100%; pest or weed control at 140 g/ha [2, 15]: 95 to 100%; pest or weed control at 70 g/ha [2, 16]: 95 to 100%; pest or weed control at 140 g/ha [2, 16]: 95 to 100%; pest or weed control at 70 g/ha [2, 17]: 60 to 74%; pest or weed control at 140 g/ha [2, 17]: 60 to 74%; melting point: 167 to 169 °C
2 | COC(=O)c1nc(-c2ccc(C(F)(F)F)nc2F)c(F)c(N)c1Cl [Compound 24] | 45 to 59 | 95 to 100 | 0 to 29 | 75 to 84 | 45 to 59 | 60 to 74 | 0 to 29 | 0 to 29 | 75 to 84 | 75 to 84 | 30 to 44 | 45 to 59 | 0 to 29 | 0 to 29 | 0 to 29 | 95 to 100 | 75 to 84 | 75 to 84 | 75 to 84 | 95 to 100 | pest or weed control at 70 g/ha [2, 13]: 60 to 74%; pest or weed control at 140 g/ha [2, 13]: 75 to 84%; pest or weed control at 70 g/ha [2, 14]: 95 to 100%; pest or weed control at 140 g/ha [2, 14]: 95 to 100%; pest or weed control at 70 g/ha [2, 15]: 85 to 94%; pest or weed control at 140 g/ha [2, 15]: 85 to 94%; pest or weed control at 70 g/ha [2, 16]: 95 to 100%; pest or weed control at 140 g/ha [2, 16]: 95 to 100%; pest or weed control at 70 g/ha [2, 17]: 0 to 29%; pest or weed control at 140 g/ha [2, 17]: 0 to 29%; melting point: 128 °C
3 | Nc1c(F)c(-c2ccc(C3CC3)nc2)nc(C(=O)O)c1Cl [Compound 36, 4-amino-5-chloro-6′-cyclopropyl-3-fluoro-[2,3′-bipyridine]-6-carboxylic acid] | 95 to 100 | 95 to 100 | 60 to 74 | 75 to 84 | 85 to 94 | 85 to 94 | 0 to 29 | 0 to 29 | 95 to 100 | 95 to 100 | 60 to 74 | 60 to 74 | 30 to 44 | 45 to 59 | 95 to 100 | 95 to 100 | 85 to 94 | 95 to 100 | 95 to 100 | 95 to 100 | pest or weed control at 70 g/ha [2, 13]: 85 to 94%; pest or weed control at 140 g/ha [2, 13]: 95 to 100%; pest or weed control at 70 g/ha [2, 14]: 95 to 100%; pest or weed control at 140 g/ha [2, 14]: 95 to 100%; pest or weed control at 70 g/ha [2, 15]: 95 to 100%; pest or weed control at 140 g/ha [2, 15]: 95 to 100%; pest or weed control at 70 g/ha [2, 16]: 95 to 100%; pest or weed control at 140 g/ha [2, 16]: 95 to 100%; pest or weed control at 70 g/ha [2, 17]: 0 to 29%; pest or weed control at 140 g/ha [2, 17]: 0 to 29%; melting point: 260 to 265 °C (dec.)
4 | COC(=O)c1nc(-c2ccc(C)nc2F)c(F)c(N)c1Cl [Compound 76] | 0 to 29 | 0 to 29 | 75 to 84 | 85 to 94 | 75 to 84 | 85 to 94 | 0 to 29 | 0 to 29 | 45 to 59 | 60 to 74 | 45 to 59 | 45 to 59 | 30 to 44 | 45 to 59 | 0 to 29 | 95 to 100 | 85 to 94 | 85 to 94 | 95 to 100 | 95 to 100 | pest or weed control at 70 g/ha [2, 13]: 85 to 94%; pest or weed control at 140 g/ha [2, 13]: 95 to 100%; pest or weed control at 70 g/ha [2, 14]: 95 to 100%; pest or weed control at 140 g/ha [2, 14]: 95 to 100%; pest or weed control at 70 g/ha [2, 15]: 95 to 100%; pest or weed control at 70 g/ha [2, 16]: 85 to 94%; pest or weed control at 140 g/ha [2, 16]: 95 to 100%; pest or weed control at 70 g/ha [2, 17]: 0 to 29%; pest or weed control at 140 g/ha [2, 17]: 0 to 29%; melting point: 165 to 166 °C
